From patent US8299097B2, “Methods for treating inflammatory disorders” (The Brigham and Women's Hospital, Inc., priority 2008, dated 2012)

What was measured:
[1] = target: P2Y12 receptors (Mus musculus, UniProt Q9CPV9); test: Clopidogrel effect on LTE4-mediated amplification of OVA-induced pulmonary inflammation; format: in vivo; parameters: from tissue; host or cells: whole animal: BALB/c (OVA model) and C57BL/6 (Der f model) mice; settings: whole lung RNA 24 h after last OVA challenge
Description: FIG. 4. […] 4A. […] Clopidogrel (500 μg/ml) was added to the drinking water of the indicated groups of mice for 72 h before the first intranasal dose of LTs, and was maintained throughout the treatment. Results are mean±SEM from at least 9 mice in each group. The experiments were repeated three times with similar results. 4B. PAS stains (left column) from representative mice in the indicated groups showing the effect of clopidigrel on goblet cell metaplasia. Higher magnification images of H & E stains (right) from the same animals showing cellular characteristics of the bronchovascular infiltrates. 4C. Effect of clopidogrel administration on the steady-state expression of IL-13 and MUC5AC mRNA as determined by real-time PCR of whole lung RNA extracted 24 h after the last OVA challenge of the indicated groups. Data are mean±SEM from 4-5 mice/group from a single experiment. Results in a second experiment were similar 4D-4F. […] 4D. Total cell numbers (top), percentages of eosinophils (middle), and total numbers of eosinophils in BAL fluid recovered 24 h after the last challenge with OVA. 4E. Goblet cell metaplasia (top) and representative PAS stains (bottom) from wild-type and p2ry12^−/− mice subjected to the same protocol. 4E. Inflammation scores from the same mice. Data in 4D-4F are from 4 mice per group. Results in a second experiment were similar 4G. BALB/c Cysltr1/Cysltr2^−/− mice and age-matched WT controls were subjected to the same protocol as the p2ry12^−/− mice. Total cell numbers (top), percentages of eosinophils (middle), and total numbers of eosinophils in BAL fluid recovered 24 h after the last challenge with OVA. Results are from 6 mice per group. Three experiments were performed with similar results. 4H. Goblet cell numbers (top) and representative PAS stains (bottom). 4I. Quantitative assessment of bronchovascular inflammation as determined by H & E stains. Results are from 6 mice/group.
FIG. 5. Effect of clopidogrel on LTE4-mediated amplification of pulmonary inflammation. 5A. […] The indicated mice were treated with clopidogrel for 72 h before the first dose of leukotriene. Results are mean±SEM from a minimum of 9 mice in each group. 5B. PAS stains (left column) from representative mice in the indicated groups showing the effect of clopidigrel on goblet cell metaplasia. Higher magnification images of H & E stains (right) from the same animals showing cellular characteristics of the bronchovascular infiltrates. 5C. Effect of clopidogrel administration on the steady-state expression of IL-13 and MUC5AC mRNA as determined by real-time PCR of whole lung RNA extracted 24 h after the last OVA challenge of the indicated groups. Data are mean±SEM from 4-5 mice/group. […]

[2] = tested on: CHO cells expressing CysLT1R, CysLT2R, or P2Y12 receptors; test: Calcium flux in Fura-2-AM-loaded CHO transfectants; format: cell-based, human; settings: LTE4 500 nM, ADP 100 μM; ADP response reflects endogenous P2Y receptors
[3] = tested on: human blood platelets; test: Platelet activation, cytofluorographic detection of P-selectin (CD62P); format: cell-based; settings: ADP 100 μM or LTE4 1 μM, 10 min
Description: FIG. 6. […] Each antibody (Ab) was diluted in 50 μl of sterile saline. […] 6A. PAS stains of the lungs of representative mice treated with isotype control (top) or with an anti-CD42 platelet-depleting antibody (bottom). 6B. Inflammation (top) and goblet cell metaplasia (bottom) in the lungs of mice treated with the indicated LT and antibody. A cohort of mice was treated with clopidogrel as indicated. Results in 6B are from a single experiment with 5 mice per group. […] 6C. […] Results are from a single experiment performed three times on different donors.
Platelets accumulate in the lungs of asthmatic individuals (Jeffery, P. K., et al. 1989. Am. Rev. Respir. Dis. 140:1745-1753), and are also recruited to the lungs of ovalbumin sensitized and challenged mice by an IgE-dependent mechanism (Pitchford, S. C., et al. 2008. Am. J. Respir. Crit. Care Med. 177:604-612).

Chain of P2Y12 receptors (Q9CPV9 whole entry): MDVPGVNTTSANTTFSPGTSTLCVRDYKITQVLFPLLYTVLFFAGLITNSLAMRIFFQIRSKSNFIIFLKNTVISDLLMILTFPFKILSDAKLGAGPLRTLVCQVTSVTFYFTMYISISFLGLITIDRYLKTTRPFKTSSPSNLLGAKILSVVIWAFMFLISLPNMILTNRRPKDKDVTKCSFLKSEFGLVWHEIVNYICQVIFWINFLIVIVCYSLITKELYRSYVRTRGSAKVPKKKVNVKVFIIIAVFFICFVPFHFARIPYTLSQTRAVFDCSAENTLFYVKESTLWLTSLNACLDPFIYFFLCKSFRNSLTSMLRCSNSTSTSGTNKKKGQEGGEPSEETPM

## CCCCC/C=C\C\C=C/C=C/C=C/[C@@H](SC[C@H](N)C(=O)O)[C@@H](O)CCCC(=O)O [LTE4]
[1]
  lung expression of IL-13 and MUC5AC mRNA (real-time PCR): tended to increase the expression of both transcripts
[2]
  calcium flux: failed to flux calcium
[3]
  CD62P expression by platelets: no CD62P expression was detected
